Test results taken from the supplement of paper PMC10307832.

Key:
Assay in all cases: relative viability (nuclei count vs DMSO), 5 days (fraction); higher = more cells survive
[1] = compound: NC(=O)c1ccc(N(C(N)=O)c2c(F)cccc2F)nc1-c1ccc(F)cc1F [VX-702] + Cc1nc(NC(=O)N2CCC[C@H]2C(N)=O)sc1-c1ccnc(C(C)(C)C(F)(F)F)c1 [Alpelisib] (partner 2 µM)
Summary of the method: (§1)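 Lung cancer cell lines in 1536-well plates got either a single drug or a fixed anchor-drug dose together with five library-drug doses (not always all listed) in √10 steps, by pin tool, on the day after seeding. Nuclei were counted after 5 days, and relative viability is the treated-to-vehicle ratio of nuclei counts. Values are medians of duplicate plates.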

[2] = compound: NC(=O)c1ccc(N(C(N)=O)c2c(F)cccc2F)nc1-c1ccc(F)cc1F [VX-702] + O=C(CCCCCCC(=O)Nc1ccccc1)NO [Vorinostat] (partner 1 µM)
Summary of the method: as §1

[3] = compound: NC(=O)c1ccc(N(C(N)=O)c2c(F)cccc2F)nc1-c1ccc(F)cc1F [VX-702] + C[C@]1(O)C[C@@H](c2nc(-c3ccc4ccc(-c5ccccc5)nc4c3)c3c(N)nccn32)C1 [Linsitinib] (partner 1 µM)
Summary of the method: as §1

[4] = compound: NC(=O)c1ccc(N(C(N)=O)c2c(F)cccc2F)nc1-c1ccc(F)cc1F [VX-702] + COc1cccc2cc(-c3nc([C@H]4CC[C@H](C(=O)O)CC4)n4ncnc(N)c34)[nH]c12 [OSI-027] (partner 0.5 µM)
Summary of the method: as §1

Cell Line: NCI-H1915
- relative viability ([1]; first compound 0.02 µM): 1.04
- relative viability ([1]; first compound 0.2 µM): 1.05
- relative viability ([1]; first compound 0.6325 µM): 1.1
- relative viability ([1]; first compound 2 µM): 1.15
- relative viability ([2]; first compound 0.02 µM): 0.578
- relative viability ([2]; first compound 0.2 µM): 0.513
- relative viability ([2]; first compound 0.6325 µM): 0.492
- relative viability ([2]; first compound 2 µM): 0.548
- relative viability ([3]; first compound 0.02 µM): 1.11
- relative viability ([3]; first compound 0.2 µM): 1.14
- relative viability ([3]; first compound 0.6325 µM): 1.08
- relative viability ([3]; first compound 2 µM): 1.08
- relative viability ([4]; first compound 0.02 µM): 0.642
- relative viability ([4]; first compound 0.2 µM): 0.587
- relative viability ([4]; first compound 0.6325 µM): 0.595
- relative viability ([4]; first compound 2 µM): 0.67

Cell Line: NCI-H1944
- relative viability ([1]; first compound 0.02 µM): 0.76
- relative viability ([1]; first compound 0.2 µM): 0.775
- relative viability ([1]; first compound 0.6325 µM): 0.818
- relative viability ([1]; first compound 2 µM): 0.605
- relative viability ([2]; first compound 0.02 µM): 0.625
- relative viability ([2]; first compound 0.2 µM): 0.557
- relative viability ([2]; first compound 0.6325 µM): 0.558
- relative viability ([2]; first compound 2 µM): 0.414
- relative viability ([3]; first compound 0.02 µM): 1.07
- relative viability ([3]; first compound 0.2 µM): 1.06
- relative viability ([3]; first compound 0.6325 µM): 1.31
- relative viability ([3]; first compound 2 µM): 0.903
- relative viability ([4]; first compound 0.02 µM): 0.396
- relative viability ([4]; first compound 0.2 µM): 0.398
- relative viability ([4]; first compound 0.6325 µM): 0.39
- relative viability ([4]; first compound 2 µM): 0.206

Cell Line: NCI-H1975
- relative viability ([1]; first compound 0.02 µM): 0.738
- relative viability ([1]; first compound 0.2 µM): 0.664
- relative viability ([1]; first compound 0.6325 µM): 0.716
- relative viability ([1]; first compound 2 µM): 0.869
- relative viability ([2]; first compound 0.02 µM): 0.752
- relative viability ([2]; first compound 0.2 µM): 0.719
- relative viability ([2]; first compound 0.6325 µM): 0.701
- relative viability ([2]; first compound 2 µM): 0.786
- relative viability ([3]; first compound 0.02 µM): 1.01
- relative viability ([3]; first compound 0.2 µM): 0.998
- relative viability ([3]; first compound 0.6325 µM): 0.887
- relative viability ([3]; first compound 2 µM): 1.17
- relative viability ([4]; first compound 0.02 µM): 0.753
- relative viability ([4]; first compound 0.2 µM): 0.756
- relative viability ([4]; first compound 0.6325 µM): 0.829
- relative viability ([4]; first compound 2 µM): 0.779

Cell Line: NCI-H1993
- relative viability ([1]; first compound 0.02 µM): 0.665
- relative viability ([1]; first compound 0.2 µM): 0.74
- relative viability ([1]; first compound 0.6325 µM): 0.628
- relative viability ([1]; first compound 2 µM): 0.674
- relative viability ([2]; first compound 0.02 µM): 0.661
- relative viability ([2]; first compound 0.2 µM): 0.754
- relative viability ([2]; first compound 0.6325 µM): 0.588
- relative viability ([2]; first compound 2 µM): 1.03
- relative viability ([3]; first compound 0.02 µM): 0.712
- relative viability ([3]; first compound 0.2 µM): 0.718
- relative viability ([3]; first compound 0.6325 µM): 0.745
- relative viability ([3]; first compound 2 µM): 0.8
- relative viability ([4]; first compound 0.02 µM): 0.516
- relative viability ([4]; first compound 0.2 µM): 0.518
- relative viability ([4]; first compound 0.6325 µM): 0.563
- relative viability ([4]; first compound 2 µM): 0.579

Cell Line: NCI-H2009
- relative viability ([1]; first compound 0.02 µM): 1.21
- relative viability ([1]; first compound 0.2 µM): 1.22
- relative viability ([1]; first compound 0.6325 µM): 1.24
- relative viability ([1]; first compound 2 µM): 1.35
- relative viability ([2]; first compound 0.02 µM): 0.791
- relative viability ([2]; first compound 0.2 µM): 0.847
- relative viability ([2]; first compound 0.6325 µM): 0.907
- relative viability ([2]; first compound 2 µM): 1.03
- relative viability ([3]; first compound 0.02 µM): 1.33
- relative viability ([3]; first compound 0.2 µM): 1.23
- relative viability ([3]; first compound 0.6325 µM): 1.21
- relative viability ([3]; first compound 2 µM): 1.34
- relative viability ([4]; first compound 0.02 µM): 0.688
- relative viability ([4]; first compound 0.2 µM): 0.88
- relative viability ([4]; first compound 0.6325 µM): 0.774
- relative viability ([4]; first compound 2 µM): 0.801

Cell Line: NCI-H2023
- relative viability ([1]; first compound 0.02 µM): 0.55
- relative viability ([1]; first compound 0.2 µM): 0.606
- relative viability ([1]; first compound 0.6325 µM): 0.483
- relative viability ([1]; first compound 2 µM): 0.561
- relative viability ([2]; first compound 0.02 µM): 0.615
- relative viability ([2]; first compound 0.2 µM): 0.736
- relative viability ([2]; first compound 0.6325 µM): 0.679
- relative viability ([2]; first compound 2 µM): 0.938
- relative viability ([3]; first compound 0.02 µM): 0.568
- relative viability ([3]; first compound 0.2 µM): 0.561
- relative viability ([3]; first compound 0.6325 µM): 0.629
- relative viability ([3]; first compound 2 µM): 0.612
- relative viability ([4]; first compound 0.02 µM): 0.349
- relative viability ([4]; first compound 0.2 µM): 0.445
- relative viability ([4]; first compound 0.6325 µM): 0.441
- relative viability ([4]; first compound 2 µM): 0.416

Cell Line: NCI-H2085
- relative viability ([1]; first compound 0.02 µM): 1.08
- relative viability ([1]; first compound 0.2 µM): 0.838
- relative viability ([1]; first compound 0.6325 µM): 0.959
- relative viability ([1]; first compound 2 µM): 0.955
- relative viability ([2]; first compound 0.02 µM): 0.861
- relative viability ([2]; first compound 0.2 µM): 0.802
- relative viability ([2]; first compound 0.6325 µM): 0.855
- relative viability ([2]; first compound 2 µM): 0.848
- relative viability ([3]; first compound 0.02 µM): 0.911
- relative viability ([3]; first compound 0.2 µM): 0.882
- relative viability ([3]; first compound 0.6325 µM): 0.903
- relative viability ([3]; first compound 2 µM): 1.02
- relative viability ([4]; first compound 0.02 µM): 0.87
- relative viability ([4]; first compound 0.2 µM): 0.636
- relative viability ([4]; first compound 0.6325 µM): 0.726
- relative viability ([4]; first compound 2 µM): 0.627

Cell Line: NCI-H2087
- relative viability ([1]; first compound 0.02 µM): 1.2
- relative viability ([1]; first compound 0.2 µM): 1.04
- relative viability ([1]; first compound 0.6325 µM): 1.04
- relative viability ([1]; first compound 2 µM): 1.19
- relative viability ([2]; first compound 0.02 µM): 0.673
- relative viability ([2]; first compound 0.2 µM): 0.797
- relative viability ([2]; first compound 0.6325 µM): 0.662
- relative viability ([2]; first compound 2 µM): 0.958
- relative viability ([3]; first compound 0.02 µM): 1.07
- relative viability ([3]; first compound 0.2 µM): 0.982
- relative viability ([3]; first compound 0.6325 µM): 0.879
- relative viability ([3]; first compound 2 µM): 1.01
- relative viability ([4]; first compound 0.02 µM): 0.55
- relative viability ([4]; first compound 0.2 µM): 0.471
- relative viability ([4]; first compound 0.6325 µM): 0.48
- relative viability ([4]; first compound 2 µM): 0.497

Cell Line: NCI-H2126
- relative viability ([1]; first compound 0.02 µM): 0.708
- relative viability ([1]; first compound 0.2 µM): 0.708
- relative viability ([1]; first compound 0.6325 µM): 0.718
- relative viability ([1]; first compound 2 µM): 0.698
- relative viability ([2]; first compound 0.02 µM): 0.76
- relative viability ([2]; first compound 0.2 µM): 0.741
- relative viability ([2]; first compound 0.6325 µM): 0.754
- relative viability ([2]; first compound 2 µM): 0.632
- relative viability ([3]; first compound 0.02 µM): 0.726
- relative viability ([3]; first compound 0.2 µM): 0.697
- relative viability ([3]; first compound 0.6325 µM): 0.67
- relative viability ([3]; first compound 2 µM): 0.634
- relative viability ([4]; first compound 0.02 µM): 0.774
- relative viability ([4]; first compound 0.2 µM): 0.593
- relative viability ([4]; first compound 0.6325 µM): 0.693
- relative viability ([4]; first compound 2 µM): 0.713

Cell Line: NCI-H2228
- relative viability ([1]; first compound 0.02 µM): 0.826
- relative viability ([1]; first compound 0.2 µM): 0.64
- relative viability ([1]; first compound 0.6325 µM): 0.753
- relative viability ([1]; first compound 2 µM): 0.856
- relative viability ([2]; first compound 0.02 µM): 0.536
- relative viability ([2]; first compound 0.2 µM): 0.631
- relative viability ([2]; first compound 0.6325 µM): 0.467
- relative viability ([2]; first compound 2 µM): 0.896
- relative viability ([3]; first compound 0.02 µM): 0.724
- relative viability ([3]; first compound 0.2 µM): 0.671
- relative viability ([3]; first compound 0.6325 µM): 0.685
- relative viability ([3]; first compound 2 µM): 0.761
- relative viability ([4]; first compound 0.02 µM): 0.649
- relative viability ([4]; first compound 0.2 µM): 0.514
- relative viability ([4]; first compound 0.6325 µM): 0.534
- relative viability ([4]; first compound 2 µM): 0.683
